Experimental findings from patent US6797824B2, “Certain 4-aminomethyl-2-substituted imidazole derivatives and 2-aminomethyl-4-substituted imidazole derivatives; new classes of dopamine receptor subtype specific ligands” (Neurogen Corporation, priority 1990, dated 2004) are described below.

Structures can show the parent of a compound that is named as a salt.

For the compound `c1ccc(CC2CCN(Cc3cnc(-c4cccc5ccccc45)[nH]3)CC2)cc1` [Compound 92, 2-(1-naphthyl)-4(5)-[(4-benzyl-piperidin-1-yl)-methyl]imidazole], the melting point lay in the range of 81 to 83 °C. The compound `C[C@@H]1CN(c2ncccn2)C[C@H](C)N1Cc1cnc(-c2ccccc2)[nH]1` [Compound 140, 2-phenyl-4(5)-[(4-(2-pyrimidinyl)-cis-2,6-dimethylpiperazin-1-yl)-methyl]-imidazole] showed a melting point of 130 to 135 °C.

In the case of `COc1ccc(Br)cc1-c1ncc(CN(C)C)[nH]1` (as salt: hydrochloride) [Compound 1, 2-(5-bromo-2-methoxyphenyl)-4(5)-[(N,N-dimethyl)aminomethyl]-imidazole dihydrochloride], the melting point is 242 to 243 °C. `Ic1nc(-c2ccccc2)[nH]c1CN1CCN(c2ncccn2)CC1` (as salt: hydroiodid) [Compound 90, 2-phenyl-5-iodo-4(5)-[(4-(2-pyrimidinyl)piperazin-1-yl)methyl]-imidazole hydroiodide salt] came in with a melting point of 196 to 199 °C. To `CCc1ccc(OC)c(-c2ncc(CN3CCN(c4ccccc4OC)CC3)[nH]2)c1` (as salt: hydrochloride) [Compound 55, 2-(5-Ethyl-2-methoxyphenyl-4(5)-[(4-(2-methoxyphenyl)-piperazin-1-yl)-methyl]-imidazoledihydrochloride] belongs 61 to 64 °C.

In the case of `O=C(c1cnc(-c2ccccc2)[nH]1)N1CCN(c2ncccn2)CC1` [Compound 144, 2-phenyl-4(5)-N-[(4-(2-pyrimidinyl)-piperazin-1-yl)-carboxamido]-imidazole], the melting point lay in the range of 231 to 232 °C.

`c1ccc(CC2CCN(CC3CCCc4[nH]c(-c5ccccc5)nc43)CC2)cc1` (stereo not shown) [Compound 138, 2-phenyl-7-[(4-benzyl-piperidin-1-yl)-methyl]-4,5,6,7-tetrahydrobenzimidazole] had a melting point of 189 to 191 °C. The compound `COc1cccc(-c2ncc(CN3CCC(c4ccccc4)CC3)[nH]2)c1` (as salt: hydrochloride) [Compound 50, 2-(3-Methoxyphenyl)-4(5)[(4-phenyl-piperidin-1-yl)-methyl]-imidazole dihydrochloride] came in with a melting point of 114 to 117 °C. To `COc1ccccc1N1CCN(Cc2cnc(-c3cccc(OC)c3OC)[nH]2)CC1` (as salt: hydrochloride) [Compound 21, 2-(2,3-Dimethoxyphenyl)-4(5)-[(4-(2-methoxyphenyl)-piperazin-1-yl)-methyl]-imidazole dihydrochloride] belongs 217 to 218 °C; to `O=C(CCc1cnc(-c2ccccc2)[nH]1)N1CCN(c2ncccn2)CC1` [Compound 122, 2-phenyl-4(5)-[(4-(2-pyrimidinyl)-piperazin-1-yl)-propan-1-oyl]-imidazole], 143 to 148 °C. For `Clc1ccc(N2CCN(Cc3cnc(-c4ccccc4)[nH]3)CC2)cc1Cl` [Compound 61, 2-Phenyl-4(5)-[(4(3,4-dichlorophenyl)-piperazin-1yl-)methyl]imidazole] the value was 179 to 181 °C; for `CC(c1cnc(-c2ccccc2)[nH]1)N1CCC(Cc2ccccc2)CC1` (stereo not shown) (as salt: hydrochloride) [Compound 91, 2-phenyl-4(5)-[1-((4-benzyl-piperidin-1-yl)-ethan-1-yl)]imidazole dihydrochloride salt], 169 to 171 °C; for `c1ccc(-c2ncc(CCCN3CCN(c4ncccn4)CC3)[nH]2)cc1` [Compound 125, 2-phenyl-4(5)-[(4-(2-pyrimidinyl)-piperazin-1-yl)-propan-1-yl]-imidazole], 133 to 135 °C. To `O=C(c1ccccc1)c1ncc(CN2CCN(c3ncccn3)CC2)[nH]1` [Compound 116, 2-(benzoyl)-4(5)-[(4-(2-pyrimidinyl)-piperazin-1-yl)-methyl]-imidazole] belongs 177 to 179 °C.

`COc1ccc(-c2ncc(CN3CCC(c4ccccc4)CC3)[nH]2)cc1` (as salt: hydrochloride) [Compound 47, 2-(4-Methoxyphenyl)-4(5)-[(4-phenyl-piperidin-1-yl)-methyl]-imidazole dihydrochloride] returned a melting point of 196 to 199 °C. To `Fc1ccnc(N2CCN(Cc3c[nH]c(-c4ccccc4)n3)CC2)n1` (as salt: hydrochloride) [Compound 58, 2-Phenyl-4(5)-[(4(4-fluoro-2-pyrimidinyl)-piperazin-1yl)-methyl]imidazole dihydrochloride] belongs 188 to 190 °C; to `O=C(/C=C/c1cnc(-c2ccccc2)[nH]1)N1CCN(c2ncccn2)CC1` [Compound 119, 2-phenyl-4(5)-[(4(2-pyrimidinyl)-piperazin-1-yl)-propen-1-oyl]-imidazole], 235 to 236 °C. To `COc1ccc(Cl)cc1-c1ncc(CN2CCN(c3ccccc3OC)CC2)[nH]1` (as salt: hydrochloride) [Compound 43, 2-(5-Chloro-2-methoxyphenyl)-4(5)-[(4-(2-methoxyphenyl)-piperazin-1-yl)-methyl]-imidazole dihydrochloride] belongs 138 to 143 °C. To `COc1ccccc1N1CCN(Cc2cnc(-c3ccc(F)cc3)[nH]2)CC1` [Compound 20, 2-(4-Fluorophenyl)-4(5)-[(4-(2-methoxyphenyl)-piperazin-1-yl)-methyl]-imidazole] belongs 95 to 97 °C; to `c1ccc(CC2CCN(Cc3ncc(-c4ccccc4)[nH]3)CC2)cc1` (as salt: fumarate) [Compound 77, 4phenyl-2(5)-[(4-benzylpiperidin-1-yl)-methyl]imidazole], 155 to 157 °C. Take `c1ccc(-c2ncc(CCN3CCN(c4ncccn4)CC3)[nH]2)cc1` [Compound 143, 2-phenyl-4(5)-[(4-(2-pyrimidinyl)-piperazin-1-yl)-ethan-1-yl]-imidazole]: the melting point was 142 to 144 °C. To `c1ccc(CC2CCN(Cc3cnc(-c4ccccc4)[nH]3)CC2)cc1` (as salt: hydrochloride) [Compound 25, 2-Phenyl-4(5)-[(4-benzyl-piperidin-1-yl)methyl]-imidazole dihydrochloride] belongs 234 to 236 °C. `c1cnc(N2CCN(Cc3cnc(C4CCCCC4)[nH]3)CC2)nc1` [Compound 128, 2-cyclohexyl-4(5)-[(4-(2-pyrimidinyl)-piperazin-1-yl)-methyl]-imidazole] yielded a melting point of 210 to 213 °C. For `COc1cc(Br)cc(-c2ncc(CN(C)C)[nH]2)c1OC` (as salt: hydrochloride) [Compound 16, 2-(5-Bromo-2,3-dimethoxyphenyl)-4(5)-[(N,N-dimethyl)aminomethyl]-imidazole dihydrochloride] the value was 194 °C. For the compound `Fc1ccc(N2CCN(Cc3cnc(-c4ccccc4)[nH]3)CC2)cc1` (as salt: hydrochloride) [Compound 56, 2-Phenyl-4(5)-[(4(4-fluorophenyl)-piperazin-1yl-)methyl]imidazole dihydrochloride], the melting point was 64 to 68 °C. For `COc1ccccc1N1CCN(Cc2cnc(-c3cccc(Cl)c3)[nH]2)CC1` (as salt: hydrochloride) [Compound 22, 2-(3-Chlorophenyl)-4(5)-[(4-(2-methoxyphenyl)-piperazin-1-yl)-methyl]-imidazole dihydrochloride] the value was 198 to 199 °C; for `c1ccc(-c2nc(-c3ccccc3)c(CN3CCN(c4ncccn4)CC3)[nH]2)cc1` [Compound 132, 2,5-diphenyl-4(5)-[(4-(2-pyrimidinyl)piperazin-1-yl)methyl]-imidazole], 221 to 225 °C. `Cc1ccc(Cl)cc1N1CCN(Cc2cnc(-c3ccccc3)[nH]2)CC1` (as salt: hydrochloride) [Compound 60, 2-Phenyl-4(5)-[(4(5-chloro-2-methylphenyl)-piperazin-1yl-)-methyl]imidazole dihydrochloride]: the melting point fell in the range of 142 to 145 °C. On to `c1ccc(-c2nc(CN3CCC(c4ccccc4)CC3)c[nH]2)cc1` (as salt: hydrochloride) [Compound 26, 2-Phenyl-4(5)-[(4-phenyl-piperidin-1-yl)-methyl]-imidazole dihydrochloride], for which the melting point was in the range of 238 to 240 °C.

`Fc1ccccc1-c1nc(CN2CCC(c3ccccc3)CC2)c[nH]1` (as salt: maleate) [Compound 52, 2-(2-Fluorophenyl)-4(5)[(4-phenyl-piperidin-1-yl)-methyl]-imidazole dimaleate] showed a melting point of 142 to 144 °C. To `COc1ccccc1N1CCN(Cc2cnc(-c3ccccc3)[nH]2)CC1` [Compound 19, 2-phenyl-4(5)-[(4-(2-methoxyphenyl)-piperazin-1-yl)-methyl]imidazole] belongs 105 to 107 °C.

As a reminder, the melting point is the temperature of the solid-liquid transition.
